The source of these data is US9440982B2 (Eolas Therapeutics, Inc., priority 2012, dated 2016).

Data set [1] has as its target T1, cytochrome P450 3A4 isoform (Homo sapiens, UniProt P08684).
T1 construct: pre-incubated with human liver microsomes and NADPH; from tissue; host or cells: human liver microsomes
The data set can be described thus: Cytochrome P450 inhibition assay (midazolam hydroxylation). The data set is classed as in vitro ADME. To be noted: 10 μM test compound; midazolam at approximately its Km; human liver microsomes; 10 µM. The gist of the method: (§1)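 Percent inhibition of midazolam 1′-hydroxylation by 10 μM compound was measured, midazolam dosed at about Km. Time-dependent inhibition was probed by a 30 min preincubation of compound with human liver microsomes and NADPH ahead of substrate, compared against samples without preincubation.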
For orientation: Microsomes from liver hold many membrane-bound enzymes, among them those of drug oxidation.

The next data set concerns the target T2, OX1 (Homo sapiens, UniProt O43613).
T2 construct: expressed in transfected cells; host or cells: CHO (CHO-OX1, kept under selection antibiotic)
T2 sequence (O43613 1-425): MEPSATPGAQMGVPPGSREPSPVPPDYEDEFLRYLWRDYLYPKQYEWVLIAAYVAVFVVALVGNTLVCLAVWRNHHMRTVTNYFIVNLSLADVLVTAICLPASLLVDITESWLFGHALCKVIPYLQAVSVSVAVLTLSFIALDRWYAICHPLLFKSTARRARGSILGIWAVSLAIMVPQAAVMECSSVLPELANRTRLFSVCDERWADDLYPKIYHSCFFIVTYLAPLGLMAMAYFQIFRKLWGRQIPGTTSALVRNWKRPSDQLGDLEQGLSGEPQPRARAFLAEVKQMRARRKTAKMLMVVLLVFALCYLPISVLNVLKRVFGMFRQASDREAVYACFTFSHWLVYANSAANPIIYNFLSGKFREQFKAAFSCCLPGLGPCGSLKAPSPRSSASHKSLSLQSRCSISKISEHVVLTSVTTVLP
The data set can be described thus: Orexin receptor cell-based functional assay, [Ca2+]i by FLIPR, CHO-OX1 cells. As to conditions: CHO-OX1 cells, [Ca2+]i by FLIPR, antagonist dose-range 0.1 nM-10 μM, EC90 of OXA; read-out: OX1. A digest of the protocol:
(§2)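 Antagonist mode FLIPR calcium read in CHO-OX1 and CHO-OX2 lines. Test compounds, dosed 0.1 nM-10 μM, preincubated 30 min after 37° C dye loading with 2.5 mM probenecid (calcium4 for 30 min or calcium6 for 2 h).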

A further data set deals with T3, CYP3A4 (Homo sapiens, UniProt P08684).
T3 construct: pre-incubated with human liver microsomes and NADPH; from tissue; host or cells: human liver microsomes
T3 sequence (P08684 whole entry): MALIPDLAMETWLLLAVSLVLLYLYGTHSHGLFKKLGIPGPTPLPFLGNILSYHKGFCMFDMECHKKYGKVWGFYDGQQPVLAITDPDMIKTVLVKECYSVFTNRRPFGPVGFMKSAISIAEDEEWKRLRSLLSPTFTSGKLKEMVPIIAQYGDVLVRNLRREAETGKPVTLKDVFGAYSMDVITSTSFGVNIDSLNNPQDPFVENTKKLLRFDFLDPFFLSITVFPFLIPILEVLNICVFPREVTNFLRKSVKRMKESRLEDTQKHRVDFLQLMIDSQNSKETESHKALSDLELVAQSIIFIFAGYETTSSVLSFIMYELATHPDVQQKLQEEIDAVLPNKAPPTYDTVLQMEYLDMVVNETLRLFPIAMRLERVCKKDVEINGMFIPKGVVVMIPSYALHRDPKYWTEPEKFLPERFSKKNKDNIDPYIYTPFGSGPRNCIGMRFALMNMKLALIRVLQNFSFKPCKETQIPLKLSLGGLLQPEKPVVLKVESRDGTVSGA
Kind of data set: Cytochrome P450 inhibition assay (midazolam hydroxylation). The class given is in vitro ADME. As to conditions: human, human liver microsomes, probe midazolam (hydroxylation to 1′-hydroxymidazolam), 10 μM test compound, midazolam at approximately its Km. The gist of the method: as §1

The target in a further data set is T4, OX2 (Homo sapiens, UniProt O43614).
T4 construct: expressed in transfected cells; host or cells: CHO (CHO-OX2, kept under selection antibiotic)
T4 sequence (O43614 1-444): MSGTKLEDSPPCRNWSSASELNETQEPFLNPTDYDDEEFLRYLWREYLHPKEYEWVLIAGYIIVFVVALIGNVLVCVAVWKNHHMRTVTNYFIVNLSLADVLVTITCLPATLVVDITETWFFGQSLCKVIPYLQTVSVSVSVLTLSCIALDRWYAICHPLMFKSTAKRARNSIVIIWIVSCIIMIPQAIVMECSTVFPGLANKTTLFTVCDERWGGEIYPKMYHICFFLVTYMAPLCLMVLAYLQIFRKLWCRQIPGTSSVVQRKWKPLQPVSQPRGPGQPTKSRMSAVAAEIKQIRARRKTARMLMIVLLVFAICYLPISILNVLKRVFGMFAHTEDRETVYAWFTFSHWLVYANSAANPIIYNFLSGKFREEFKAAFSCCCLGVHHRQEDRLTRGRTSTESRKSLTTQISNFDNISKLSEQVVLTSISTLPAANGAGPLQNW
Kind of data set: Orexin receptor cell-based functional assay, [Ca2+]i by FLIPR, CHO-OX2 cells. To be noted: [Ca2+]i by FLIPR, antagonist dose-range 0.1 nM-10 μM, EC90 of OXA, read-out: OX2. A digest of the protocol:
as §2

T1 sequence (P08684 whole entry, canonical isoform): as the sequence (P08684 whole entry) above

Turning to `Cc1nc(C(=O)N2CCC[C@@H](C)[C@H]2CNc2nc3cc(Cl)ccc3o2)c(-c2ccc(F)cc2)s1` [Example A13, ((2S,3R)-2-(((5-Chlorobenzo[d]oxazol-2-yl)amino)methyl)-3-methylpiperidin-1-yl)(5-(4-fluorophenyl)-2-methylthiazol-4-yl)methanone], the “% CYP3A4 Inhibition” value in data set [1] is 83%.
As to `Cc1ccc(-c2cnn(C)c2)c(C(=O)N2CCC[C@@H](C)[C@H]2CNc2nc3cc(Cl)ccc3o2)c1` [Example A40, ((2S,3R)-2-(((5-Chlorobenzo[d]oxazol-2-yl)amino)methyl)-3-methylpiperidin-1-yl)(5-methyl-2-(1-methyl-1H-pyrazol-4-yl)phenyl)methanone], the “% CYP3A4 Inhibition” value in data set [1] is reported as 96%. The IC50 at OX1 amounted to 20 nM.
For the compound `Cc1ccc(-n2nccn2)c(C(=O)N2CCC[C@@H](C)[C@H]2CNc2ccc(C#N)cn2)c1` [Example A46, 6-((((2S,3R)-3-Methyl-1-(5-methyl-2-(2H-1,2,3-triazol-2-yl)benzoyl)piperidin-2-yl)methyl)amino)nicotinonitrile], the “% CYP3A4 Inhibition” value in data set [1] was determined as 53%. Also, the IC50 on OX1 worked out at 5 nM.
As to `Cc1nc(C(=O)N2CCC[C@@H](C)[C@H]2CNc2nc3cc(Cl)ccc3o2)c(-c2ccc(F)cc2)s1` [Example A84, ((2S,3R)-2-(((5-Chlorobenzo[d]oxazol-2-yl)amino)methyl)-3-methylpiperidin-1-yl)(5-(4-fluorophenyl)-2-methylthiazol-4-yl)methanone], the “% CYP3A4 Inhibition” value in data set [1] was 50%.
Same read-out and setting: under `Cc1ccc(-n2nccn2)c(C(=O)N2CCC[C@@H](C)[C@H]2CNc2ncc(F)cc2F)c1` [Example A91, ((2S,3R)-2-(((3,5-Difluoropyridin-2-yl)amino)methyl)-3-methylpiperidin-1-yl)(5-methyl-2-(2H-1,2,3-triazol-2-yl)phenyl)methanone] stands 58%.
Still for that read-out and setting: under `Cc1ccc(-n2nccn2)c(C(=O)N2CCC[C@@H](C)[C@H]2CNc2ncc(Cl)cc2F)c1` [Example A92, ((2S,3R)-2-(((5-Chloro-3-fluoropyridin-2-yl)amino)methyl)-3-methylpiperidin-1-yl)(5-methyl-2-(2H-1,2,3-triazol-2-yl)phenyl)methanone] stands 91%.
Broadly, the inhibition is how much of the control response was suppressed. A higher inhibition goes with a strong effect. For the compound `Cc1c(F)ccc(C(=O)N2CCC[C@@H](C)[C@H]2CNc2ncc(C(F)(F)F)cn2)c1-c1ncccn1` [Example A347, (4-fluoro-3-methyl-2-(pyrimidin-2-yl)phenyl)((2S,3R)-3-methyl-2-(((5-(trifluoromethyl)pyrimidin-2-yl)amino)methyl)piperidin-1-yl)methanone], the inhibition at 10 µM at CYP3A4 is 35%. For the same compound, the values for the IC50 on OX2 and on OX1 were over 5000 nM and 2 nM, respectively.
Regarding `Cc1cc(F)cc(C(=O)N2CCC[C@@H](C)[C@H]2CNc2ccc(C(F)(F)F)cn2)c1-n1nccn1` [Example A348, (5-fluoro-3-methyl-2-(2H-1,2,3-triazol-2-yl)phenyl)((2S,3R)-3-methyl-2-(((5-(trifluoromethyl)pyridin-2-yl)amino)methyl)piperidin-1-yl)methanone], testing at 10 µM against CYP3A4 gave an inhibition of 77%. The figures for the IC50 at OX2 and on OX1 were over 4000 nM and 2 nM, respectively.
On the same counts, the results for `Cc1cc(F)cc(C(=O)N2CCC[C@@H](C)[C@H]2CNc2ncc(C(F)(F)F)cn2)c1-n1nccn1` [Example A349, (5-fluoro-3-methyl-2-(2H-1,2,3-triazol-2-yl)phenyl)((2S,3R)-3-methyl-2-(((5-(trifluoromethyl)pyrimidin-2-yl)amino)methyl)piperidin-1-yl)methanone] are 59%, over 1000 nM and 2 nM.
The compound `Cc1ccc(F)c(C(=O)N2CCC[C@@H](C)[C@H]2CNc2ccc(C(F)(F)F)cn2)c1-c1ncccn1` [Example A354, (6-fluoro-3-methyl-2-(pyrimidin-2-yl)phenyl)((2S,3R)-3-methyl-2-(((5-(trifluoromethyl)pyridin-2-yl)amino)methyl)piperidin-1-yl)methanone] had an inhibition at 10 µM on CYP3A4 of 49%. The values for the IC50 at OX2 and at OX1 were 790 nM and 4 nM, respectively.
Consider `Cc1ccc(C(=O)N2CCC[C@@H](C)[C@H]2CNc2ccc(C(F)(F)F)cn2)c(-n2nccn2)c1F` [Example A356, (3-Fluoro-4-methyl-2-(2H-1,2,3-triazol-2-yl)phenyl)((2S,3R)-3-methyl-2-(((5-(trifluoromethyl)pyridin-2-yl)amino)methyl)piperidin-1-yl)methanone], for which at 10 µM the inhibition at CYP3A4 was 86%. Further, the results for the IC50 at OX2 and at OX1 were 3900 nM and 2 nM, respectively.
The corresponding values for `Cc1ccc(C(=O)N2CCC[C@@H](C)[C@H]2CNc2ncc(C(F)(F)F)cn2)c(-n2nccn2)c1F` [Example A357, (3-fluoro-4-methyl-2-(2H-1,2,3-triazol-2-yl)phenyl)((2S,3R)-3-methyl-2-(((5-(trifluoromethyl)pyrimidin-2-yl)amino)methyl)piperidin-1-yl)methanone] are 83%, over 5000 nM and 5 nM.
Take `Cc1ccc(C(=O)N2CCC[C@@H](C)[C@H]2CNc2ncc(C(F)(F)F)cn2)c(-c2ncccn2)c1F` [Example A359, (3-fluoro-4-methyl-2-(pyrimidin-2-yl)phenyl)((2S,3R)-3-methyl-2-(((5-(trifluoromethyl)pyrimidin-2-yl)amino)methyl)piperidin-1-yl)methanone]: on CYP3A4, testing at 10 µM gave an inhibition of 52%. In addition, the values for the IC50 on OX2 and on OX1 were over 5000 nM and 6 nM, respectively.
On the same counts, the results for `Cc1cc(C(=O)N2CCC[C@@H](C)[C@H]2CNc2ncc(C(F)(F)F)cn2)c(-n2nccn2)cc1F` [Example A369, (4-fluoro-5-methyl-2-(2H-1,2,3-triazol-2-yl)phenyl)((2S,3R)-3-methyl-2-(((5-(trifluoromethyl)pyrimidin-2-yl)amino)methyl)piperidin-1-yl)methanone] are 60%, 3000 nM and 4 nM.
On to `Cc1cc(F)c(-n2nccn2)c(C(=O)N2CCC[C@@H](C)[C@H]2CNc2ccc(C(F)(F)F)cn2)c1` [Example A372, (3-Fluoro-5-methyl-2-(2H-1,2,3-triazol-2-yl)phenyl)((2S,3R)-3-methyl-2-(((5-(trifluoromethyl)pyridin-2-yl)amino)methyl)piperidin-1-yl)methanone], for which at 10 µM the inhibition against CYP3A4 was 83%. The IC50 was determined as 490 nM at OX2 and 1 nM on OX1.
Compound `Cc1cc(F)c(-n2nccn2)c(C(=O)N2CCC[C@@H](C)[C@H]2CNc2ncc(C(F)(F)F)cn2)c1` [Example A373, (3-fluoro-5-methyl-2-(2H-1,2,3-triazol-2-yl)phenyl)((2S,3R)-3-methyl-2-(((5-(trifluoromethyl)pyrimidin-2-yl)amino)methyl)piperidin-1-yl)methanone] returned an inhibition at 10 µM on CYP3A4 of 60%. In addition, the IC50 at OX2 was determined as 1900 nM; on OX1 it was 1 nM.
On the same counts, the results for `Cc1cc(F)c(-c2ncccn2)c(C(=O)N2CCC[C@@H](C)[C@H]2CNc2ncc(C(F)(F)F)cn2)c1` [Example A375, (3-fluoro-5-methyl-2-(pyrimidin-2-yl)phenyl)((2S,3R)-3-methyl-2-(((5-(trifluoromethyl)pyrimidin-2-yl)amino)methyl)piperidin-1-yl)methanone] are 48%, 170 nM and 8 nM.
